Converted amounts (≈) assume the structure as drawn. The source made the active and inactive calls. The rule behind the calls is not given here.
Legend:
[1] = Resistance index, ratio of IC50 for human A549/T cells to IC50 for human A549 cells; format: functional
A549 [2] = test: Antiproliferative activity against human A549 cells assessed as cell growth inhibition incubated for 48 hrs by MTT assay; settings: A549, 48 h
A549/TR [3] = test: Antiproliferative activity against human A549/T cell assessed as cell growth inhibition incubated for 48 hrs by MTT assay; format: functional, cell-based
A549/TR [4] = test: Antiproliferative activity against human A549/T cell assessed as cell growth inhibition at 80 nM incubated for 48 hrs by MTT assay; format: functional, cell-based
Tubulin (Homo sapiens) = Tubulin (Homo sapiens) (UniProt P68371+Q9H4B7+P0DPH7+P68366+Q13509+Q71U36+P04350+Q3ZCM7+P07437+P68363+Q9BQE3+Q6PEY2+Q13885+Q9BVA1+Q9BUF5); test: Disruption of microtubule network in human A549/T cell assessed as disorganization of tubulin cytoskeleton at 1000 nM incubated for 24 hrs by immunofluorescence staining based confocal microscopy analysis
A549/TR [5] = test: Antitumor activity against human A549/T cell xenografted in BALB/c mouse assessed as reduction in tumor growth at 15 mg/kg, ip administered every 2 days; format: functional, organism-based; settings: time 2.0 day
A549/TR [6] = test: Antiproliferative activity against human A549/T cell assessed as cell growth inhibition in presence of verapamil incubated for 48 hrs by MTT assay; format: functional, cell-based
[7] = Toxicity in BALB/c mouse implanted with human A549/T cell assessed as change in body weight at 15 mg/kg, ip administered every 2 days; format: organism-based; settings: in vivo, 48 h, time 2 day
A549/TR [8] = test: Inhibition of colony formation in human A549/T cell at 1 uM incubated for 48 hrs by crystal violet staining based analysis; format: functional
A549 [9] = test: Inhibition of colony formation in human A549 cells at 1 uM incubated for 48 hrs by crystal violet staining based analysis; format: functional, cell-based
[10] = Metabolic stability in human liver microsome assessed as half life measured upto 50 mins by LC-MS/MS analysis; format: ADME; settings: liver microsomes
[11] = Metabolic stability in mouse liver microsome assessed as intrinsic clearance measured upto 50 mins by LC-MS/MS analysis; format: ADME; settings: liver microsomes, read-out: CLH
[12] = Metabolic stability in mouse liver microsome assessed as half life measured upto 50 mins by LC-MS/MS analysis; format: ADME; settings: liver microsomes
[13] = Metabolic stability in human liver microsome assessed as intrinsic clearance measured upto 50 mins by LC-MS/MS analysis; format: ADME; settings: liver microsomes, read-out: CLH
[14] = Aqueous solubility of the compound […] at pH 7.4 by HPLC analysis; format: physicochemical
[15] = Inhibition of pig brain tubulin polymerization measured upto 20 mins by absorbance based assay; parameters: species or system Sus scrofa

| Compound | Ratio IC50 [1] | IC50 (A549 [2]) [µM] | IC50 (A549/TR [3]) [µM] | also measured |
| --- | --- | --- | --- | --- |
| CC[C@]1(O)C[C@H]2CN(CCc3c([nH]c4ccccc34)[C@@](C(=O)OC)(c3cc4c(cc3OC)N(C=O)[C@H]3[C@@](O)(C(=O)OC)[C@H](OC(C)=O)[C@]5(CC)C=CCN6CC[C@]43[C@@H]65)C2)C1 [VINCRISTINE] | 207 | 0.021 | 4.35 |  |
| COc1cc(-c2cc(-c3ccc(C)cc3)cc3[nH]cnc23)cc(OC)c1OC | 1.42 | 0.68 | 0.97 |  |
| COc1ccc(-c2cncc3[nH]c(=O)n(-c4cc(OC)c(OC)c(OC)c4)c23)cc1O |  |  | > 50 |  |
| COc1ccc(CCN(C)CCCC(C#N)(c2ccc(OC)c(OC)c2)C(C)C)cc1OC (centres undefined) |  |  |  | Activity (A549/TR [3]): inactive; Activity (A549/TR [4]): Active |
| COc1ccc(-c2cncc3[nH]c(=O)n(-c4cc(OC)c(OC)c(OC)c4)c23)cc1F |  |  | > 50 |  |
| COc1ccc(-c2nc(Nc3cc(OC)c(OC)c(OC)c3)c3ncn(C)c3n2)cc1F | 3.23 | 1.21 | 3.91 |  |
| COc1ccc(-c2cc(-c3cc(OC)c(OC)c(OC)c3)c3nc[nH]c3c2)cn1 | 1.34 | 0.29 | 0.39 |  |
| COc1ccc2nc(-c3ccc(OC)c(F)c3)nc(Nc3cc(OC)c(OC)c(OC)c3)c2c1 | 4.37 | 2.04 | 8.91 |  |
| COc1cc(-c2cc(Cl)cc3[nH]cnc23)cc(OC)c1OC |  | > 50 | > 50 |  |
| COc1cc(-c2cc(-c3ccc(C4CC4)cc3)cc3[nH]cnc23)cc(OC)c1OC | 1.34 | 4.92 | 6.76 |  |
| COc1ccc(-c2cncc3[nH]c(=O)n(Cc4cc(OC)c(OC)c(OC)c4)c23)cc1O |  |  | > 50 |  |
| COc1ccc(-n2c(=O)[nH]c3cnc(-c4cc(OC)c(OC)c(OC)c4)cc32)cc1O |  |  | > 50 |  |
| COc1ccc(-c2cc(-c3cc(OC)c(OC)c(OC)c3)c3nc(C)[nH]c3c2)cc1F | 1.9 | 5.37 | 10.2 |  |
| COc1ccc(-c2cc(-c3ccc(OC)c(N)c3)cc3[nH]cnc23)cc1 | 1.5 | 11 | 16.6 |  |
| COc1cc(-c2cc(C)cc3[nH]cnc23)cc(OC)c1OC |  | > 50 | > 50 |  |
| COc1ccc(-c2nc3cnccc3n2-c2cc(OC)c(OC)c(OC)c2)cc1O |  |  | > 50 |  |
| COc1ccc(-c2cc(-c3cc(OC)c(OC)c(OC)c3)c3[nH]c(=O)[nH]c3c2)cc1F | 2.37 | 1.27 | 3.02 |  |
| COc1ccc(-c2cc3[nH]c(=O)[nH]c3c(Oc3cc(OC)c(OC)c(OC)c3)n2)cc1F |  |  | 22.1 |  |
| COc1ccc(-c2nc(N(C)c3cc(OC)c(OC)c(OC)c3)c3ncn(C)c3n2)cc1F | 1.67 | 9.91 | 16.6 |  |
| COc1ccc(-c2cc(-c3cc(OC)c(OC)c(OC)c3)c3[nH]c(=O)[nH]c3c2)cc1O | 1.62 | 0.29 | 0.47 |  |
| COc1ccc(-c2cc(-c3cc(OC)c(OC)c(OC)c3)c3nc[nH]c3c2)cc1O | 4.06 | 0.059 | 0.24 |  |
| COc1ccc(-c2cc(-c3cc(OC)c(OC)c(OC)c3)c3nc(C)[nH]c3c2)cc1O | 3.58 | 0.53 | 1.9 |  |
| CC(=O)O[C@H]1C(=O)[C@@]2(C)[C@H]([C@H](OC(=O)c3ccccc3)[C@]3(O)C[C@H](OC(=O)[C@H](O)[C@@H](NC(=O)c4ccccc4)c4ccccc4)C(C)=C1C3(C)C)[C@]1(OC(C)=O)CO[C@@H]1C[C@@H]2O [PACLITAXEL] | >25000 | 0.002 | > 50 | Activity (Tubulin (Homo sapiens)): Active; Activity (A549/TR [5]): inactive; Activity (A549/TR [6]): Active; Activity [7]: Non-toxic; inhibition (A549/TR [8]): inactive; inhibition (A549 [9]): Active |
| COc1cc2c(c(OC)c1OC)-c1ccc(OC)c(=O)cc1[C@@H](NC(C)=O)CC2 [COLCHICINE] | 12 | 0.022 | 0.28 | Activity (A549/TR [6]): Active |
| O=C(c1ccc(F)cc1)C1CCN(CCn2c(=O)[nH]c3ccccc3c2=O)CC1 [KETANSERIN] |  |  |  | half-life [10]: 37 min; CLint scaled [11]: 419 mL/min/kg; half-life [12]: 13 min; CLint scaled [13]: 47 mL/min/kg |
| COc1ccc(-c2cc(-c3cc(OC)c(OC)c(OC)c3)c3nc[nH]c3c2)cc1CO | 3.36 | 0.47 | 1.58 |  |

| Compound | Ratio IC50 [1] | IC50 (A549 [2]) [µM] | IC50 (A549/TR [3]) [µM] | also measured |
| --- | --- | --- | --- | --- |
| COc1ccc(-c2cc3c([nH]c(=O)n3-c3cc(OC)c(OC)c(OC)c3)c(C(N)=O)n2)cc1O |  |  | 33.8 |  |
| COc1cc(-c2cccc3[nH]cnc23)cc(OC)c1OC |  | > 50 | > 50 |  |
| COc1ccc(-c2nc(Nc3cc(OC)c(OC)c(OC)c3)c3ccccc3n2)cc1F | >4.84 | 10.3 | > 50 |  |
| COc1cc(-c2cc(-c3ccc(C)c(O)c3)cc3[nH]cnc23)cc(OC)c1OC | 4.68 | 0.19 | 0.89 |  |
| COc1ccc(-c2cc(-c3cc(OC)c(OC)c(OC)c3)c3nc[nH]c3c2)cc1N | 4.84 | 0.033 | 0.16 |  |
| COc1ccc(-c2cc(Oc3cc(OC)c(OC)c(OC)c3)c3nc[nH]c3c2)cc1F | 1.99 | 5.13 | 10.2 |  |
| COc1ccc(-c2nc3c(c(Nc4cc(OC)c(OC)c(OC)c4)n2)CCC3)cc1F | 1.54 | 23 | 35.5 |  |
| COc1ccc(-c2nc(Nc3cc(OC)c(OC)c(OC)c3)c3cc(OC)c(OC)cc3n2)cc1F |  | > 50 | > 50 |  |
| COc1ccc(-c2nc(Nc3cc(OC)c(OC)c(OC)c3)c3cccnc3n2)cc1F | >9.43 | 5.36 | > 50 |  |
| COc1cc(-c2cc(-c3ccc(Cl)c(N)c3)cc3[nH]cnc23)cc(OC)c1OC | 2.21 | 0.41 | 0.91 |  |
| COc1ccc(Nc2nc(Nc3cc(OC)c(OC)c(OC)c3)c3ccccc3n2)cc1F | 3.96 | 2.77 | 11 |  |
| CCC1=C[C@@H]2CN(C1)Cc1c([nH]c3ccccc13)[C@@](C(=O)OC)(c1cc3c(cc1OC)N(C)[C@H]1[C@@](O)(C(=O)OC)[C@H](OC(C)=O)[C@]4(CC)C=CCN5CC[C@]31[C@@H]54)C2 |  |  |  | Activity (A549/TR [6]): Active |
| COc1ccc(-c2nc3c(c(Nc4cc(OC)c(OC)c(OC)c4)n2)SCC3)cc1F |  | > 50 | > 50 |  |
| COc1ccc(-c2cc(-c3ccccc3OC)c3nc[nH]c3c2)cc1N | 2.5 | 0.14 | 0.35 |  |
| CC(=O)O[C@@]12CO[C@@H]1C[C@H](O)[C@@]1(C)C(=O)[C@H](O)C3=C(C)[C@@H](OC(=O)[C@H](O)[C@@H](NC(=O)OC(C)(C)C)c4ccccc4)C[C@@](O)([C@@H](OC(=O)c4ccccc4)[C@H]21)C3(C)C [DOCETAXEL ANHYDROUS] | 7840 | 0.001 | 7.84 | Activity (A549/TR [6]): Active |
| COc1ccc(-c2nc3c(c(Nc4cc(OC)c(OC)c(OC)c4)n2)CCCC3)cc1F | 1.12 | 10.4 | 11.7 |  |
| COc1cc(-c2cc(Br)cc3[nH]cnc23)cc(OC)c1OC | 1.28 | 28.9 | 37.1 |  |
| CCOc1ccc(-c2cc(-c3cc(OC)c(OC)c(OC)c3)c3nc[nH]c3c2)cc1 | 2.86 | 1.03 | 2.95 |  |
| COc1cc(-c2cc(-c3ccc(C)c(N)c3)cc3[nH]cnc23)cc(OC)c1OC | 2.08 | 0.24 | 0.5 |  |
| COc1cc(-c2cc(-c3ccc(C)c(F)c3)cc3[nH]cnc23)cc(OC)c1OC | 3.45 | 0.11 | 0.38 |  |
| COc1ccc(-c2cc(-c3cc(OC)c(OC)c(OC)c3)c3nc[nH]c3c2)cc1 | 1.94 | 0.78 | 1.51 |  |
| COc1ccc(-c2cc(Oc3cc(OC)c(OC)c(OC)c3)c3ncn(C)c3c2)cc1F | 2.05 | 0.2 | 0.41 |  |
| COc1ccc(-c2cc(-c3cc(OC)c(OC)c(OC)c3)c3nc[nH]c3c2)cc1F | 2.73 | 0.11 | 0.3 |  |
| COc1ccc(-c2cc(-c3cc(OC)c(OC)c(OC)c3)c3cc[nH]c3c2)cc1F | 3.29 | 4.82 | 15.8 |  |
| COc1ccc(/C=C\c2cc(OC)c(OC)c(OC)c2)cc1O [COMBRETASTATIN A4] |  |  | 0.013 | Activity (A549/TR [5]): Active; half-life [10]: 14 min; solubility [14]: 1 µg/mL (≈ 3.16 µM); IC50 [15]: 1.4 µM; Activity [7]: Non-toxic; CLint scaled [13]: 90 mL/min/kg |

From ChEMBL document CHEMBL6074685, “Design, synthesis and biological evaluation of novel diaryl-substituted fused nitrogen heterocycles as tubulin polymerization inhibitors to overcome multidrug resistance in vitro and in vivo” (Eur J Med Chem, 2025)
